Tests used:
[1] = Tolerability of oral treatment in dogs; assay type: in vivo, beagle dogs
Procedure: The therapeutic (knockdown) and residual efficacy of 7, administered orally at a point dosages of 5 and 25 mg/kg bodyweight, was evaluated against adult American dog tick (D. variabilis) and cat flea (C. felis) infestations on dogs. Sixteen (16) male and female beagle dogs were allocated to one of four treatment groups: Untreated control group (n=4 dogs); 7, 5 mg/kg liquid oral dosage form (n=4 dogs); 7, 25 mg/kg liquid oral dosage form (n=4 dogs); and 7, 25 mg/kg solid oral dosage form. Liquid dosage forms were prepared by dissolving 7 in a solution of 55% polyethylene glycol-300, 35% propylene glycol and 10% water at 25 mg/ml. Solid oral dosage form was prepared by thoroughly mixing 7 with microcrystalline cellulose and croscarmellose sodium (50:47:3, w/w) and placing into size 00 gelatin capsules. On Day 0, all dogs were orally administered 7 at the prescribed point dosages. Twenty-four (24) hours before treatment (Day −1), all dogs were infested with approximately 50 unfed, adult-stage American dog ticks (D. variabilis; approximately 50% male and 50% female). On Day 2, approximately 48 hours after treatment, ticks were removed and counts were conducted to determine the number and life-status classification of ticks present on all dogs (normal, moribund or dead; attached or detached). For all groups, dogs were re-infested with approximately 50 unfed, adult D. variabilis ticks on Days 5 and 12, with tick classification, counts and removal on Days 7 and 14 (approximately 48 hours after each infestation). For negative control and 7 (25 mg/kg solid oral dosage form) groups, dogs were re-infested with approximately 50 unfed, adult D. variabilis ticks on Days 19 and 28, with tick classification, counts and removal on Days 21 and 30. Immediately following removal of ticks on Day 30, dogs in the negative control and 7 (25 mg/kg solid oral dosage form) groups were infested with approximately 100 unfed, adult cat fleas (C. felis). Flea counts were conducted approximately 48 hours later, on Day 32.
(§1) The therapeutic (knockdown) and residual efficacy of 7 and 8, each administered orally at a point dose of either 25 mg/kg or 50 mg/kg bodyweight, was evaluated against adult tick (Dermacentor variabilis and Rhipicephalus sanguineus) infestations on dogs. Twenty (20) male and female beagle dogs were allocated to one of five treatment groups, four (4) dogs per group: Untreated control; 7, 25 mg/kg; 7, 50 mg/kg; 8, 25 mg/kg; and 8, 50 mg/kg. On Day −1, all dogs were infested with approximately 50 unfed, adult D. variabilis ticks. On Day 0, dogs were orally administered gelatin capsules containing either 7 or 8 (50% technical active, 47% microcrystalline cellulose and 3% croscarmellose sodium, w/w) so as to achieve the desired point dosages. Ticks were counted and classified on all dogs, but not removed, on Day 1 (approximately 24 hours after treatment). On Day 2, approximately 48 hours after treatment, ticks were counted, classified and removed. Dogs were re-infested with the same number of D. variabilis ticks on Days 5, 12 and 19 with corresponding 48 hour post-infestation tick counts on Days 7, 14 and 21. Dogs were infested with approximately 50 unfed, adult brown dog ticks (Rhipicephalus sanguineus; approximately 50% male and 50% female) on Days 15 and 28, with corresponding 48 hour post-infestation tick counts on Days 17 and 30. GM percent efficacy of treatments against both tick species was calculated using the following formula: […]
The efficacy of 7, administered orally at a point dose of 25 mg/kg bodyweight, was evaluated against adult tick (Dermacentor variabilis) infestations. Twelve (12) male and female beagle dogs were allocated to three treatment groups: Untreated, negative control A; 7 group B; and 7 group C (n=4 dogs per group). Dogs were infested with approximately 50 unfed, adult D. variabilis ticks on Days −1, 5, 12, 19 and 28. […]

[2] = test system: Lone star tick larvae (Amblyomma americanum); experiment: Larval immersion microassay against larval-stage Lone star ticks; settings: Amblyomma americanum, 24 h, read-out: activity (percent larval mortality)
Procedure: The larval immersion microassay was conducted as described in detail in White, et al., J. Med. Entomol. […] Compounds of the invention were formulated in dimethylsulfoxide (DMSO) to prepare a stock solution at a concentration of at least 10 mM. […] Approximately 30-50 Lone star tick larvae (Amblyomma americanum) were submerged into each well containing compounds. After a 30 minute immersion period, larvae were removed with a wide-bore pipette tip in 0.05 ml of fluid, dispensed into a commercial paper tissue biopsy bag which was sealed at the top with a plastic dialysis clip, inverted and allowed to air dry for 60 minutes. Bags containing larvae were then incubated at approximately 27 degrees Celsius and >90% relative humidity. After 24 hours, bags were opened, live and dead larvae were counted and percent larval mortality was calculated.
7 contains one chiral center, and is therefore a racemic mixture comprised of approximately 50% R- and 50% S-enantiomer. In vitro and surrogate animal (rat) studies were conducted to evaluate the biological activity of the R- and S-enantiomers of 7. For the in vitro study, larvae of the Lone star tick (Amblyomma americanum) were exposed to 17 (S-enantiomer) and 18 (R-enantiomer) using the larval immersion microassay at a concentration of no greater than 0.3 mM. Following exposure, larvae were removed, transferred to a tissue biopsy bag and incubated at approximately 27 degrees Celsius and >90% relative humidity. After 24 hours, biopsy bags were opened and the numbers of live and dead larvae were determined.

[3] = test system: adult cat flea (Ctenocephalides felis); experiment: Example 7: therapeutic efficacy and speed of kill against adult cat flea infestations on dogs; assay type: in vivo; settings: 25 mg/kg oral
Procedure: The therapeutic efficacy and speed of kill of 7, administered orally at a point dose of 25 mg/kg bodyweight, was evaluated against adult cat flea (Ctenocephalides felis) infestations on dogs. Twelve (12) male and female beagle dogs were allocated to one of four treatment groups (n=3 dogs per group). Group A was untreated, negative control; groups B, C and D received 7. On Day −1, all dogs were infested with approximately 100 unfed, adult fleas (approximately 50% male and 50% female). On Day 0, dogs in groups B, C and D were orally administered gelatin capsules containing 7, at a point dose of 25 mg/kg (50% technical active, 47% microcrystalline cellulose and 3% croscarmellose sodium, w/w). At eight (8) hours post-treatment, fleas were counted and removed from dogs in group B; at twelve (12) hours post-treatment, fleas were counted and removed from dogs in group C; and at twenty-four (24) hours post-treatment, fleas were counted and removed from dogs in groups A and D. GM percent efficacy of treatments against fleas was calculated using the following formula: […]

[4] = test system: brown dog tick (Rhipicephalus sanguineus); experiment: Example 5: efficacy against brown dog tick infestations on dogs; assay type: in vivo
Procedure: as §1

In the case of `CC1(C)OB(O)c2ccc(C3=NOC(c4cc(Cl)c(Cl)c(Cl)c4)(C(F)(F)F)C3)cc21` (racemic) [Compound 7, 3,3-Dimethyl-5-(5-(3,4,5-trichlorophenyl)-5-(trifluoromethyl)-4,5-dihydroisoxazol-3-yl)benzo[c][1,2]oxaborol-1(3H)-ol], the tolerability ([1]; oral 25 mg/kg, Example 7) is reported as “well tolerated”, the tolerability ([1]; oral 50 mg/kg, Example 6) is reported as “well tolerated” and the tolerability ([1]; oral 5 or 25 mg/kg, Example 4) is reported as “well tolerated”. For the same molecule, the tolerability ([1]; oral 25 or 50 mg/kg, Example 5) was “well tolerated”, the mortality at 300 µM [2] was no less than 80% and the “% efficacy” value ([3]; 8 hours post-treatment) was “(11.8) %”. For the same molecule, the “Geometric mean group live flea count” value ([3]; 8 hours post-treatment) was 75.6, the “Geometric mean group live flea count” value ([3]; 12 hours post-treatment) was 0.3 and the “Geometric mean group live flea count” value ([3]; 24 hours post-treatment) was 0.0. For the same molecule, the “% efficacy” value ([4]; 25 mg/kg oral capsule, Day 17) was “(75.0) %”, the “Geometric mean group live tick count” value ([4]; 25 mg/kg oral capsule, Day 17) was 8.0 and the “Geometric mean group live tick count” value ([4]; 50 mg/kg oral capsule, Day 17) was 1.6. The “% efficacy” value ([4]; 50 mg/kg oral capsule, Day 30) was “(63.9) %” and the “Geometric mean group live tick count” value ([4]; 50 mg/kg oral capsule, Day 30) was 13.4.

From patent US9156860B2, “Boron-containing small molecules” (Anacor Pharmaceuticals, Inc., priority 2011, dated 2015)
